Results taken from PubChem BioAssay (NCI).
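Dose response: 5 concentrations. Exposure: 48 h. Format: 96-well plates. Endpoint: linear interpolation; highest concentration if not reached. TGI: concentration producing complete growth inhibition.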

Key:
Test in all cases: NCI tumour cell line growth inhibition, 48 h
NCI-H226 lung = tested on: NCI-H226 lung
SF-295 CNS = tested on: SF-295 CNS
BT-549 breast = tested on: BT-549 breast
HS 578T breast = tested on: HS 578T breast
COLO 205 colon = tested on: COLO 205 colon
SW-620 colon = tested on: SW-620 colon
RPMI-8226 leukemia = tested on: RPMI-8226 leukemia
SF-539 CNS = tested on: SF-539 CNS
K-562 leukemia = tested on: K-562 leukemia
UO-31 renal = tested on: UO-31 renal
OVCAR-5 ovarian = tested on: OVCAR-5 ovarian
SN12C renal = tested on: SN12C renal
HT29 colon = tested on: HT29 colon
UACC-257 melanoma = tested on: UACC-257 melanoma
786-0 renal = tested on: 786-0 renal
OVCAR-3 ovarian = tested on: OVCAR-3 ovarian
U251 CNS = tested on: U251 CNS
SF-268 CNS = tested on: SF-268 CNS
OVCAR-4 ovarian = tested on: OVCAR-4 ovarian
MDA-MB-435 = tested on: MDA-MB-435
HOP-92 NSCLC = tested on: HOP-92 NSCLC
SR leukemia = tested on: SR leukemia
CCRF-CEM leukemia = tested on: CCRF-CEM leukemia
EKVX NSCLC = tested on: EKVX NSCLC
SK-OV-3 ovarian = tested on: SK-OV-3 ovarian
MDA-MB-231 breast = tested on: MDA-MB-231 breast
HCC-2998 colon = tested on: HCC-2998 colon
SNB-75 CNS = tested on: SNB-75 CNS
SNB-19 CNS = tested on: SNB-19 CNS
TK-10 renal = tested on: TK-10 renal
HCT-15 colon = tested on: HCT-15 colon
PC-3 prostate = tested on: PC-3 prostate
OVCAR-8 ovarian = tested on: OVCAR-8 ovarian
M14 melanoma = tested on: M14 melanoma
LOX IMVI melanoma = tested on: LOX IMVI melanoma
ACHN renal = tested on: ACHN renal
CAKI-1 renal = tested on: CAKI-1 renal
MDA-N = tested on: MDA-N
A549 NSCLC = tested on: A549 NSCLC
HL-60(TB) leukemia = tested on: HL-60(TB) leukemia
HCT-116 colon = tested on: HCT-116 colon
SK-MEL-2 melanoma = tested on: SK-MEL-2 melanoma
IGROV1 ovarian = tested on: IGROV1 ovarian
NCI/ADR-RES ovarian = tested on: NCI/ADR-RES ovarian
NCI-H23 lung = tested on: NCI-H23 lung
KM12 colon = tested on: KM12 colon
MOLT-4 leukemia = tested on: MOLT-4 leukemia
MCF7 breast = tested on: MCF7 breast
MALME-3M melanoma = tested on: MALME-3M melanoma
UACC-62 melanoma = tested on: UACC-62 melanoma
T-47D breast = tested on: T-47D breast
HOP-62 NSCLC = tested on: HOP-62 NSCLC
SK-MEL-5 melanoma = tested on: SK-MEL-5 melanoma
DU-145 prostate = tested on: DU-145 prostate
NCI-H522 lung = tested on: NCI-H522 lung
A498 renal = tested on: A498 renal
RXF 393 renal = tested on: RXF 393 renal
SK-MEL-28 melanoma = tested on: SK-MEL-28 melanoma
NCI-H460 lung = tested on: NCI-H460 lung

`C#C[C@]1(O)CC[C@H]2[C@@H]3CCC4=C/C(=N/NC(=O)c5cccc6c(=O)c7ccccc7[nH]c56)CCC4[C@H]3CC[C@@]21C` (stereo partly specified) was tested, and the TGI (NCI-H226 lung) was over 100 µM, the TGI (SF-295 CNS) was over 100 µM and the TGI (BT-549 breast) was 63.3 µM. For the same molecule, the TGI (HS 578T breast) was over 100 µM, the TGI (COLO 205 colon) was over 100 µM and the TGI (SW-620 colon) was over 100 µM. The TGI (RPMI-8226 leukemia) was over 100 µM, the TGI (SF-539 CNS) was over 100 µM and the TGI (K-562 leukemia) was over 100 µM. It also gave a TGI (UO-31 renal) of 76.5 µM, a TGI (OVCAR-5 ovarian) of over 100 µM and a TGI (SN12C renal) of over 100 µM. The TGI (HT29 colon) was over 100 µM, the TGI (UACC-257 melanoma) was over 100 µM and the TGI (786-0 renal) was over 100 µM. For the same molecule, the TGI (OVCAR-3 ovarian) was over 100 µM, the TGI (U251 CNS) was over 100 µM and the TGI (SF-268 CNS) was over 100 µM. The TGI (OVCAR-4 ovarian) was over 100 µM, the TGI (MDA-MB-435) was over 100 µM and the TGI (HOP-92 NSCLC) was over 100 µM. For the same molecule, the TGI (SR leukemia) was over 100 µM, the TGI (CCRF-CEM leukemia) was over 100 µM and the TGI (EKVX NSCLC) was over 100 µM. It also gave a TGI (SK-OV-3 ovarian) of over 100 µM, a TGI (MDA-MB-231 breast) of over 100 µM and a TGI (HCC-2998 colon) of over 100 µM. It also gave a TGI (SNB-75 CNS) of over 100 µM, a TGI (SNB-19 CNS) of over 100 µM and a TGI (TK-10 renal) of over 100 µM. The TGI (HCT-15 colon) was over 100 µM, the TGI (PC-3 prostate) was over 100 µM and the TGI (OVCAR-8 ovarian) was over 100 µM. It also gave a TGI (M14 melanoma) of over 100 µM, a TGI (LOX IMVI melanoma) of over 100 µM and a TGI (ACHN renal) of over 100 µM. The TGI (CAKI-1 renal) was over 100 µM, the TGI (MDA-N) was over 100 µM and the TGI (A549 NSCLC) was over 100 µM. For the same molecule, the TGI (HL-60(TB) leukemia) was over 100 µM, the TGI (HCT-116 colon) was over 100 µM and the TGI (SK-MEL-2 melanoma) was over 100 µM. For the same molecule, the TGI (IGROV1 ovarian) was over 100 µM, the TGI (NCI/ADR-RES ovarian) was over 100 µM and the TGI (NCI-H23 lung) was over 100 µM. It also gave a TGI (KM12 colon) of over 100 µM, a TGI (MOLT-4 leukemia) of over 100 µM and a TGI (MCF7 breast) of over 100 µM. The TGI (MALME-3M melanoma) was 68.1 µM, the TGI (UACC-62 melanoma) was over 100 µM and the TGI (T-47D breast) was over 100 µM. For the same molecule, the TGI (HOP-62 NSCLC) was over 100 µM, the TGI (SK-MEL-5 melanoma) was 64.8 µM and the TGI (DU-145 prostate) was over 100 µM. The TGI (NCI-H522 lung) was 86 µM.

`C[C@@H]1[C@@H](C)C(c2ccccc2)O[Si]1(C(C)(C)C)C(C)(C)C` (stereo partly specified) was tested, and the TGI (NCI-H226 lung) was 40.9 µM, the TGI (SF-295 CNS) was 30.2 µM and the TGI (BT-549 breast) was 57.1 µM. For the same molecule, the TGI (HS 578T breast) was 42.6 µM, the TGI (COLO 205 colon) was 30.3 µM and the TGI (SW-620 colon) was 34.9 µM. For the same molecule, the TGI (RPMI-8226 leukemia) was 50.3 µM, the TGI (SF-539 CNS) was 30.7 µM and the TGI (K-562 leukemia) was 63.6 µM. For the same molecule, the TGI (UO-31 renal) was 31 µM, the TGI (OVCAR-5 ovarian) was 31.4 µM and the TGI (SN12C renal) was 31.3 µM. For the same molecule, the TGI (HT29 colon) was 31 µM, the TGI (A498 renal) was 33.9 µM and the TGI (UACC-257 melanoma) was 37.5 µM. The TGI (786-0 renal) was 29.4 µM, the TGI (OVCAR-3 ovarian) was 30.1 µM and the TGI (U251 CNS) was 30.7 µM. The TGI (SF-268 CNS) was 61.2 µM, the TGI (OVCAR-4 ovarian) was over 86.1 µM and the TGI (MDA-MB-435) was 76.3 µM. For the same molecule, the TGI (HOP-92 NSCLC) was 38.8 µM, the TGI (SR leukemia) was 29.3 µM and the TGI (CCRF-CEM leukemia) was 46.2 µM. The TGI (EKVX NSCLC) was 33.4 µM, the TGI (SK-OV-3 ovarian) was over 69.3 µM and the TGI (MDA-MB-231 breast) was 31.3 µM. The TGI (HCC-2998 colon) was over 55.8 µM, the TGI (SNB-75 CNS) was 29.9 µM and the TGI (SNB-19 CNS) was 18.3 µM. The TGI (TK-10 renal) was 29.9 µM, the TGI (HCT-15 colon) was over 55.3 µM and the TGI (RXF 393 renal) was 31 µM. It also gave a TGI (PC-3 prostate) of 33.1 µM, a TGI (OVCAR-8 ovarian) of 33.8 µM and a TGI (M14 melanoma) of 42.2 µM. For the same molecule, the TGI (LOX IMVI melanoma) was 30.9 µM, the TGI (ACHN renal) was 31.5 µM and the TGI (CAKI-1 renal) was 33 µM. For the same molecule, the TGI (MDA-N) was 48.4 µM, the TGI (SK-MEL-28 melanoma) was over 66.7 µM and the TGI (A549 NSCLC) was 30.3 µM. For the same molecule, the TGI (HCT-116 colon) was 28.8 µM, the TGI (SK-MEL-2 melanoma) was 29.3 µM and the TGI (IGROV1 ovarian) was 31 µM. It also gave a TGI (NCI/ADR-RES ovarian) of 33 µM, a TGI (NCI-H23 lung) of 30.3 µM and a TGI (KM12 colon) of 30.6 µM. The TGI (MOLT-4 leukemia) was 33.9 µM, the TGI (MCF7 breast) was 31.9 µM and the TGI (MALME-3M melanoma) was 37 µM. It also gave a TGI (UACC-62 melanoma) of 46.3 µM, a TGI (T-47D breast) of 37.2 µM and a TGI (HOP-62 NSCLC) of 31.4 µM. The TGI (SK-MEL-5 melanoma) was 31.5 µM, the TGI (DU-145 prostate) was 31.6 µM and the TGI (NCI-H460 lung) was 32.2 µM. For the same molecule, the TGI (NCI-H522 lung) was 28.7 µM.

Work on `Cc1cccc2c(N)c3cccc(C(=O)NCC[N+](C)(C)Cc4ccc([N+](=O)[O-])s4)c3nc12` yielded a TGI (NCI-H226 lung) of 21.9 µM, a TGI (SF-295 CNS) of over 100 µM and a TGI (BT-549 breast) of over 70.5 µM. It also gave a TGI (HS 578T breast) of 34.6 µM, a TGI (COLO 205 colon) of 21.4 µM and a TGI (SW-620 colon) of over 66.3 µM. It also gave a TGI (RPMI-8226 leukemia) of 34.1 µM, a TGI (SF-539 CNS) of 23.9 µM and a TGI (K-562 leukemia) of 27.9 µM. For the same molecule, the TGI (UO-31 renal) was over 74.7 µM, the TGI (OVCAR-5 ovarian) was over 61.2 µM and the TGI (SN12C renal) was 49 µM. The TGI (HT29 colon) was 23.6 µM, the TGI (A498 renal) was 23.6 µM and the TGI (UACC-257 melanoma) was over 78 µM. It also gave a TGI (786-0 renal) of 27.8 µM, a TGI (OVCAR-3 ovarian) of 49.6 µM and a TGI (U251 CNS) of over 100 µM. It also gave a TGI (SF-268 CNS) of 36.9 µM, a TGI (OVCAR-4 ovarian) of 25.1 µM and a TGI (MDA-MB-435) of over 63.9 µM. For the same molecule, the TGI (HOP-92 NSCLC) was 68.8 µM, the TGI (SR leukemia) was 5.7 µM and the TGI (CCRF-CEM leukemia) was 24.4 µM. For the same molecule, the TGI (EKVX NSCLC) was 41.5 µM, the TGI (SK-OV-3 ovarian) was over 75.9 µM and the TGI (MDA-MB-231 breast) was 21.3 µM. The TGI (HCC-2998 colon) was 25.2 µM, the TGI (SNB-75 CNS) was 43.8 µM and the TGI (SNB-19 CNS) was 60.2 µM. It also gave a TGI (TK-10 renal) of over 100 µM, a TGI (HCT-15 colon) of over 100 µM and a TGI (RXF 393 renal) of 25.9 µM. The TGI (PC-3 prostate) was 30.5 µM, the TGI (OVCAR-8 ovarian) was 42.9 µM and the TGI (M14 melanoma) was 39.7 µM. For the same molecule, the TGI (LOX IMVI melanoma) was 18.6 µM, the TGI (ACHN renal) was over 49.2 µM and the TGI (CAKI-1 renal) was over 73.8 µM. The TGI (MDA-N) was 49.9 µM, the TGI (SK-MEL-28 melanoma) was over 100 µM and the TGI (A549 NSCLC) was 17.5 µM. It also gave a TGI (HCT-116 colon) of over 100 µM, a TGI (SK-MEL-2 melanoma) of over 77.6 µM and a TGI (IGROV1 ovarian) of 26 µM. For the same molecule, the TGI (NCI/ADR-RES ovarian) was over 100 µM, the TGI (NCI-H23 lung) was 21.9 µM and the TGI (KM12 colon) was over 54.3 µM. The TGI (MOLT-4 leukemia) was 9.36 µM, the TGI (MCF7 breast) was over 51.9 µM and the TGI (MALME-3M melanoma) was 25 µM. For the same molecule, the TGI (UACC-62 melanoma) was over 49.1 µM, the TGI (T-47D breast) was over 67.6 µM and the TGI (HOP-62 NSCLC) was 32.5 µM. For the same molecule, the TGI (SK-MEL-5 melanoma) was 28.2 µM, the TGI (DU-145 prostate) was 46.8 µM and the TGI (NCI-H460 lung) was 16.5 µM. It also gave a TGI (NCI-H522 lung) of 28.2 µM.
